Assay results published in patent US20020072499A1, “Treatment with small peptides to effect antifibrotic activity” (Histatek, Inc., priority 1999, published 2002).
Peptide text beside a SMILES is read from it. * marks the point of attachment. For = O=C*

Experiments:
BALB/c mice = conditions: mouse, in vivo
[1] = system: murine model of allergen-induced chronic asthma (OVA immunized BALB/c mice); conditions: mouse, in vivo
Description: The chronic murine model of asthma was used to test the effects of f-Met-Leu-Phe-Phe (HK-X) on persistent asthma. This murine system is a model of chronic asthma where there is enormous infiltration of inflammatory cells in association with outer boundaries of the airway basal lamina. An immunization period of five (5) months during which mice were subjected to an initial immunization procedure during the first month followed by weekly intranasal challenges with OVA established a condition of persistent asthma in the mice. […] Immunized mice were treated with HK-X eight times over a sixteen day period (i.e., every other day). […]
Airway Plug scores—by using a scoring system from + to ++++, the severity of mucus secretion into medium and large-sized airways could be measured according to the previous report (Henderson et al., J. Exp. Medicine, vol. 1-84, pp. 1483-94, Oct. 1996).
Fraction of Epithelial Cells Containing Mucous Granules—was evaluated by randomly counting the number of epithelial cells containing mucus out of 100 epithelial cells in medium to large airways (600 μm to 1,000 μm diameters). A total of 10 fields were counted in different lung lobes and the mean score was tabulated. […]
Numbers of various cell types—eosinophils and neutrophils were quantified by counting the numbers per high power field (40×) in an area of 2,200 u^2 in association with airways. […]

in vivo = conditions: mouse
Method: The HK-X/OVA group of animals received HK-X dosage of 0.4 mg/Kg body weight (50 ug per 20 gm body weight per day) while the saline group received the same dosage of HK-X without OVA. […] Therefore, to maintain the plasma levels during the course of the allergen challenge, these mice received additional HK-X doses intranasally immediately before OVA challenge.

[2] = system: murine model of allergen-induced chronic asthma subjected to repeated allergic challenge (Balb/C mice); conditions: mouse, in vivo
Method: This example reports the results of tests wherein mice having induced chronic asthma and having been treated in accord with the present invention are subsequently further challenged intranasally (“IN”) with OVA. Materials were the same as in Example 1. Balb/C mice were repeatedly immunized with OVA over a six month period as in Example 1. Thereafter, the mice were treated with 50 μg of HKX per dose intranasally for eight doses over a 16 day period, as in example 1. Then, a further regimen administered a 50 μg dose of HK-X 15-30 minutes prior to intranasal OVA challenge. This regimen was repeated for a total of three days. On the day after the last treatment the mice were sacrificed. HK-X was prepared in the same manner as in Example 1. […] The trachea and left lung (upper and lower lobes) were collected and fixed in 10% formalin at 20° C. for 15 hr. After embedding in paraffin, the tissues were cut into 5 μm sections. Eosinophils were stained in the lung tissue with Modified Discombe's Solution. […] Occlusion of the airway diameter by mucus was assessed on a semiquantitative scale ranging from 0 to 5+. For each mouse, individuals blinded to the protocol design assessed 10 airway sections randomly distributed throughout the left lung for mucus occlusion by morphometric analysis. […]

SMILES: CSCC[C@H](NC=O)C(=O)N[C@@H](CC(C)C)C(=O)N[C@@H](Cc1ccccc1)C(=O)N[C@@H](Cc1ccccc1)C(=O)O [HK-X, f-Met-Leu-Phe-Phe] (For-MLFF-OH; C-terminus assumed)
- adverse reactions or signs of sickness (BALB/c mice): No adverse reactions or signs of sickness were observed
- pulmonary tissue of control mice administered HK-X in saline [1]: free of inflammatory cells and fibrotic collagen deposits
- half-life (in vivo): < 30 min
- number of eosinophils in the lung tissues [2]: 0.75±0.18 cells per 2,200 μm^2
- pulmonary tissue of control mice administered HK-X in saline [2]: free of inflammatory cells and fibrotic collagen deposits
